Measurements published in ChEMBL document CHEMBL3352781, “Synthesis, antileishmanial and antitrypanosomal activities of N-substituted tetrahydro-β-carbolines” (Bioorg Med Chem Lett, 2014).
Calls of active or inactive are those of the source. No cut-off for these calls is given here.

Legend:
Leishmania donovani [1] = assay: Antimicrobial activity against promastigote stage of Leishmania donovani infected in human THP1 cells after 72 hrs by Alamar Blue assay; assay type: functional, organism-based
Leishmania donovani [2] = assay: Antimicrobial activity against axenic amastigote stage of Leishmania donovani after 72 hrs by Alamar Blue assay; assay type: functional, organism-based
Leishmania donovani [3] = assay: Antimicrobial activity against promastigote stage of Leishmania donovani after 72 hrs by Alamar Blue assay; assay type: functional, organism-based
Trypanosoma brucei = assay: Antimicrobial activity against trypamastigote stage of Trypanosoma brucei after 72 hrs by Alamar Blue assay; assay type: functional, organism-based
LLC-PK1 = assay: Cytotoxicity against pig LLC-PK1 cells up to 25 ug/ml after 48 hrs by neutral red assay; assay type: cell-based, Sus scrofa; conditions: llc-pk1, 48 h
HepG2 = assay: Cytotoxicity against human HepG2 cells up to 25 ug/ml after 48 hrs by neutral red assay; assay type: cell-based; conditions: hepg2, 48 h
THP-1 = assay: Cytotoxicity against human THP1 cells up to 10 ug/ml after 48 hrs by neutral red assay; assay type: cell-based; conditions: thp-1, 48 h
Vero = assay: Cytotoxicity against African green monkey Vero cells up to 25 ug/ml after 48 hrs by neutral red assay; assay type: cell-based; conditions: chlorocebus sabaeus
[4] = Leishmania donovani, 72 h, read-out: IC50
[5] = Trypanosoma brucei, 72 h, read-out: IC50
[6] = Leishmania donovani, THP-1, 72 h
[7] = Leishmania donovani, THP-1, 72 h, read-out: IC50

Row | Compound | IC90 (Leishmania donovani [1]; THP-1) | IC50 (Leishmania donovani [1]; thp-1) | IC50 (Leishmania donovani [2]) | IC90 (Leishmania donovani [2]) | IC50 (Leishmania donovani [3]) | IC90 (Leishmania donovani [3]) | IC50 (Trypanosoma brucei) | IC90 (Trypanosoma brucei) | Activity (LLC-PK1) | Activity (HepG2) | Activity (THP-1) | Activity (Vero) | IC50 (Leishmania donovani [3]; [4]) [µM] | IC50 (Trypanosoma brucei; [5]) [µM] | IC50 (Leishmania donovani [2]; [4]) [µM] | IC90 (Trypanosoma brucei; Trypanosoma brucei, 72 h) [µM] | IC90 (Leishmania donovani [2]; Leishmania donovani, 72 h) [µM] | IC90 (Leishmania donovani [3]; Leishmania donovani, 72 h) [µM] | IC90 (Leishmania donovani [1]; [6]) [µM] | IC50 (Leishmania donovani [1]; [7]) [µM]
1 | O=C(N1CCOCC1)N1CCc2c([nH]c3ccccc23)C1 | inactive | Not Active | Not Active | inactive | Not Active | inactive | Not Active | inactive |  |  |  |  |  |  |  |  |  |  |  | 
2 | Cc1ncsc1C(=O)N1CCc2c([nH]c3ccccc23)C1 | inactive | Not Active | Not Active | inactive | Not Active | inactive | Not Active | inactive |  |  |  |  |  |  |  |  |  |  |  | 
3 | c1ccc2[nH]c(CN3CCc4c([nH]c5ccccc45)C3)nc2c1 | inactive | Not Active | Not Active | inactive |  |  |  |  | Non-toxic | Non-toxic | Non-toxic | Non-toxic | 118 | 29.7 |  |  |  |  |  | 
4 | Cn1cc(C(=O)N2CCc3c([nH]c4ccccc34)C2)c2ccccc21 | inactive | Not Active | Not Active | inactive |  |  | Not Active | inactive | Non-toxic | Non-toxic | Non-toxic | Non-toxic | 52.6 |  |  |  |  |  |  | 
5 | O=[N+]([O-])c1ccc(CN2CCc3c([nH]c4ccccc34)C2)o1 | inactive | Not Active |  |  |  |  |  |  | Non-toxic | Non-toxic | Non-toxic | Non-toxic | 33.8 | 1 | 117 | 28.1 |  |  |  | 
6 | NCCCC(N)(C(=O)O)C(F)F (stereo not drawn) [EFLORNITHINE] |  |  |  |  |  |  |  |  |  |  |  |  |  | 28 |  | 68.2 |  |  |  | 
7 | O=C(c1ccc(Br)o1)N1CCc2c([nH]c3ccccc23)C1 | inactive | Not Active |  |  |  |  |  |  | Non-toxic | Non-toxic | Non-toxic | Non-toxic | 27.5 | 13.7 | 96.5 | 23.9 | 122 |  |  | 
8 | O=C1NCCN1C(=O)N1CCc2c([nH]c3ccccc23)C1 | inactive | Not Active | Not Active | inactive | Not Active | inactive | Not Active | inactive |  |  |  |  |  |  |  |  |  |  |  | 
9 | c1ccc2nc(CN3CCc4c([nH]c5ccccc45)C3)ccc2c1 | inactive | Not Active | Not Active | inactive | Not Active | inactive | Not Active | inactive |  |  |  |  |  |  |  |  |  |  |  | 
10 | O=C(c1cnccn1)N1CCc2c([nH]c3ccccc23)C1 | inactive | Not Active | Not Active | inactive | Not Active | inactive | Not Active | inactive |  |  |  |  |  |  |  |  |  |  |  | 
11 | Clc1ccc(CN2CCc3c([nH]c4ccccc34)C2)s1 | inactive | Not Active | Not Active | inactive |  |  |  |  | Non-toxic | Non-toxic | Non-toxic | Non-toxic | 9.1 | 8.9 |  | 14.5 |  | 25.6 |  | 
12 | c1ccc2cc(CN3CCc4c([nH]c5ccccc45)C3)ccc2c1 |  |  |  |  |  |  |  |  | Non-toxic | Non-toxic | Non-toxic | Non-toxic | 22.1 | 10.2 | 87.6 | 17.6 |  | 28.1 | > 32 | 28.3
13 | O=C(c1cc2ccccc2o1)N1CCc2c([nH]c3ccccc23)C1 | inactive | Not Active |  |  |  |  | Not Active | inactive | Non-toxic | Non-toxic | Non-toxic | Non-toxic | 49.5 |  | 116 |  |  | 120 |  | 
14 | c1ccc2c3c([nH]c2c1)CN(Cc1ccncc1)CC3 | inactive | Not Active | Not Active | inactive |  |  |  |  | Non-toxic | Non-toxic | Non-toxic | Non-toxic | 121 | 26.2 |  |  |  |  |  | 
15 | c1ccc2c(CN3CCc4c([nH]c5ccccc45)C3)c3ccccc3cc2c1 | inactive | Not Active |  |  |  |  |  |  | Non-toxic | Non-toxic | Non-toxic | Non-toxic | 16 | 11 | 80.4 | 18.8 | 104 | 76 |  | 
16 | O=C(c1ccc(-c2ccc(-c3ccccc3)cc2)o1)N1CCc2c([nH]c3ccccc23)C1 | inactive | Not Active |  |  |  |  | Not Active | inactive | Non-toxic | Non-toxic | Non-toxic | Non-toxic | 75.3 |  | 83.4 |  | 110 | 111 |  | 
17 | N=C(N)c1ccc(OCCCCCOc2ccc(C(=N)N)cc2)cc1 [PENTAMIDINE] |  |  |  |  |  |  |  |  |  |  |  |  | 4.8 | 0.0041 | > 29.4 | 0.007 | > 29.4 | 6.1 | 3.1 | 2
18 | C[C@@H]1[C@H](O)[C@@H](C)/C=C/C=C/C=C/C=C/C=C/C=C/C=C/[C@H](O[C@@H]2O[C@H](C)[C@@H](O)[C@H](N)[C@@H]2O)C[C@@H]2O[C@](O)(C[C@@H](O)C[C@@H](O)[C@H](O)CC[C@@H](O)C[C@@H](O)CC(=O)O[C@H]1C)C[C@H](O)[C@H]2C(=O)O [AMPHOTERICIN B] |  |  |  |  |  |  | Not Active | inactive |  |  |  |  | 0.3 |  | 0.3 |  | 0.4 | 0.4 | 0.5 | 
19 | CN1CCN(C(=O)N2CCc3c([nH]c4ccccc34)C2)CC1 | inactive | Not Active | Not Active | inactive | Not Active | inactive | Not Active | inactive |  |  |  |  |  |  |  |  |  |  |  | 
20 | O=C(c1ccc2ccccc2n1)N1CCc2c([nH]c3ccccc23)C1 | inactive | Not Active | Not Active | inactive | Not Active | inactive | Not Active | inactive |  |  |  |  |  |  |  |  |  |  |  | 
